Test results reported in article PMC10892041, “Vanadium Complexes with Thioanilide Derivatives of Amino Acids: Inhibition of Human Phosphatases and Specificity in Various Cell Models of Metabolic Disturbances” (Pharmaceuticals, 2024).

Test system: myocytes C2C12
Assay: Viability of myocytes C2C12 after 24 h incubation (resazurin-based reagent)
Settings: 50 µM; 24 h incubation; control solvent only

Cc1occc(=O)c1[O-].Cc1occc(=O)c1[O-].[O]=[V+2] [BMOV, bis(maltolato)oxidovanadium(IV), reference compound]
Cell viability of myocytes C2C12, % of the control: 90 ± 4%
